According to patent US9359281B2, “Enantiomers of 2-hydroxy derivatives of fatty acids” (UNIVERSITAT DE LES ILLES BALEARS, priority 2011, dated 2016):

System: A549 cells
Assay: Cell growth inhibition, A549
Assay type: cell-based, human
From the text: At this respect, concentrations which inhibit growth of tumour cells (IC50) are lower for the enantiomer S ([−]) in all studied tumour lines (Table 5). […] In all of the cases, the molecules employed were in the form of sodium salt.

[1] = Homo sapiens, A549, A549, sodium salt form

IC50 (A549, sodium salt form)	IC50 [1]	Compound
351 ± 22.7 µM		CC/C=C\C/C=C\C/C=C\CCCCCCC(O)C(=O)O (stereo not drawn) [[+]2OH18:3a] [2-hydroxy-α-linoleic acid]
206 ± 21.7 µM		CCCCC/C=C\C/C=C\C/C=C\CCCC(O)C(=O)O (racemic) [Racemic 2OH18:3g, 2-hydroxy-γ-linoleic acid]
155 ± 7.5 µM		CCCCC/C=C\C/C=C\C/C=C\CCCC(O)C(=O)O (stereo not drawn) [[−]2OH18:3g] [2-hydroxy-γ-linoleic acid]
342 ± 31.5 µM		CCCCC/C=C\C/C=C\C/C=C\CCCC(O)C(=O)O (stereo not drawn) [[+]2OH18:3g] [2-hydroxy-γ-linoleic acid]
	105 ± 4.1 µM	CCCCC/C=C\C/C=C\CCCCCCC(O)C(=O)O (racemic) [Racemic 2OH18:2, 2-hydroxylinoleic acid]

The next lines start with the compound.

Compound	IC50 (A549, sodium salt form)	IC50 [1]
CCCCC/C=C\C/C=C\CCCCCCC(O)C(=O)O (stereo not drawn) [[−]2OH18:2] [2-hydroxylinoleic acid]	69.9 ± 11.2 µM	
CCCCCC/C=C\CCCCCCC(O)C(=O)O (stereo not drawn) [[+]2OH16:1] [2-hydroxypalmitoleic acid]	299 ± 34.2 µM	
CCCCCC/C=C\CCCCCCC(O)C(=O)O (stereo not drawn) [[−]2OH16:1] [2-hydroxypalmitoleic acid]	110 ± 14 µM	
CC/C=C\C/C=C\C/C=C\CCCCCCC(O)C(=O)O (racemic) [Racemic 2OH18:3a, 2-hydroxy-α-linoleic acid]	219 ± 15.4 µM	
CCCCCC/C=C\CCCCCCC(O)C(=O)O (racemic) [Racemic 2OH16:1, 2-hydroxypalmitoleic acid]		193 ± 9.3 µM
CC/C=C\C/C=C\C/C=C\CCCCCCC(O)C(=O)O (stereo not drawn) [[−]2OH18:3a] [2-hydroxy-α-linoleic acid]	146 ± 10.9 µM	
CCCCC/C=C\C/C=C\CCCCCCC(O)C(=O)O (stereo not drawn) [[+]2OH18:2] [2-hydroxylinoleic acid]	186 ± 21.9 µM	
